According to ChEMBL document CHEMBL3769397, “A new GLP-1 analogue with prolonged glucose-lowering activity in vivo via backbone-based modification at the N-terminus” (Bioorg Med Chem, 2016):

Experiments:
[1] = target: T1, DPP4 (dipeptidyl peptidase 4) (Homo sapiens, UniProt P27487); experiment: Half life of compound assessed as recombinant human DPP4-mediated cleavage by RP-HPLC analysis; type: ADME
[2] = target: T1, DPP4 (dipeptidyl peptidase 4); experiment: Drug degradation assessed as recombinant human DPP4-mediated cleavage by measuring compound remaining after 4 hrs by RP-HPLC analysis; type: ADME; conditions: read-out: Stability
[3] = target: T1, DPP4 (dipeptidyl peptidase 4); experiment: Drug degradation assessed as recombinant human DPP4-mediated cleavage by measuring compound remaining after 8 hrs by RP-HPLC analysis; type: ADME; conditions: read-out: Stability
[4] = target: T1, DPP4 (dipeptidyl peptidase 4); experiment: Drug degradation assessed as recombinant human DPP4-mediated cleavage by measuring compound remaining after 1 hr by RP-HPLC analysis; type: ADME; conditions: read-out: Stability
[5] = Retention time of compound over 30 mins by HPLC analysis; type: physicochemical; conditions: 0.5 h
[6] = target: Glucagon-like peptide 1 receptor (Homo sapiens, UniProt P43220); experiment: Activation of human GLP1R expressed in HEK293 cells preincubated for 30 mins followed by addition of cAMP-d2 conjugate/cryptate conjugate incubated for 60 mins by fluorescence analysis; type: functional, cell-based
Sequence of Glucagon-like peptide 1 receptor (P43220 whole entry): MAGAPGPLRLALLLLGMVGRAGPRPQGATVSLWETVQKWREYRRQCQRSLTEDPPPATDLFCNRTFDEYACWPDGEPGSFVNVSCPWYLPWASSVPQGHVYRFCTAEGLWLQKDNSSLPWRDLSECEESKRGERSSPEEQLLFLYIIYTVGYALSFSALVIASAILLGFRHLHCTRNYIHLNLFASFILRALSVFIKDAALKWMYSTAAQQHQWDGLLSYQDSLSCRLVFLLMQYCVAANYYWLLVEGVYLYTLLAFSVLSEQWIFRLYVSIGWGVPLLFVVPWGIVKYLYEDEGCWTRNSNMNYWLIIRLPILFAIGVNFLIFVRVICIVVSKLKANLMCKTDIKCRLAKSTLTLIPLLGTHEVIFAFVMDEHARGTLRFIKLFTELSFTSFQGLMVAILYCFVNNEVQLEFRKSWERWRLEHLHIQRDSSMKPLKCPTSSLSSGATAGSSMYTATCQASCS

[7] = target: T1, DPP4 (dipeptidyl peptidase 4); experiment: Drug degradation assessed as recombinant human DPP4-mediated cleavage by measuring compound remaining after 2 hrs by RP-HPLC analysis; type: ADME; conditions: read-out: Stability
[8] = target: T1, DPP4 (dipeptidyl peptidase 4); experiment: Drug degradation assessed as recombinant human DPP4-mediated cleavage by measuring compound remaining after 12 hrs by RP-HPLC analysis; type: ADME; conditions: read-out: Stability
Mus musculus [9] = experiment: Reduction in blood glucose in Kunming mouse assessed as blood glucose level at 25 nmol/kg, ip at administered 0 mins followed by first glucose challenge at 40 mins followed by second glucose challenge at 310 mins and measured at 80 mins by glucose tolerance test (reference value: 4.9 to 6.3 mmol/L); type: functional
Mus musculus [10] = experiment: Reduction in blood glucose in Kunming mouse assessed as blood glucose level at 25 nmol/kg, ip at administered 0 mins followed by first glucose challenge at 40 mins followed by second glucose challenge at 310 mins and measured at 115 mins by glucose tolerance test (reference value: 4.9 to 6.3 mmol/L); type: functional
Mus musculus [11] = experiment: Reduction in blood glucose in Kunming mouse assessed as blood glucose level at 25 nmol/kg, ip at administered 0 mins followed by first glucose challenge at 40 mins followed by second glucose challenge at 310 mins and measured at 430 mins by glucose tolerance test (reference value: 4.9 to 6.3 mmol/L); type: functional
Mus musculus [12] = experiment: Reduction in blood glucose in Kunming mouse assessed as blood glucose level at 25 nmol/kg, ip at administered 0 mins followed by first glucose challenge at 40 mins followed by second glucose challenge at 310 mins and measured at 160 mins by glucose tolerance test (reference value: 4.9 to 6.3 mmol/L); type: functional
Mus musculus [13] = experiment: Reduction in blood glucose in Kunming mouse assessed as blood glucose level at 25 nmol/kg, ip at administered 0 mins followed by first glucose challenge at 40 mins followed by second glucose challenge at 310 mins and measured at 325 mins by glucose tolerance test (reference value: 4.9 to 6.3 mmol/L); type: functional
Mus musculus [14] = experiment: Reduction in blood glucose in Kunming mouse assessed as blood glucose level at 25 nmol/kg, ip at administered 0 mins followed by first glucose challenge at 40 mins followed by second glucose challenge at 310 mins and measured at 55 mins by glucose tolerance test (reference value: 4.9 to 6.3 mmol/L); type: functional
Mus musculus [15] = experiment: Reduction in blood glucose in Kunming mouse assessed as blood glucose level at 25 nmol/kg, ip at administered 0 mins followed by first glucose challenge at 40 mins followed by second glucose challenge at 310 mins and measured at 385 mins by glucose tolerance test (reference value: 4.9 to 6.3 mmol/L); type: functional
Mus musculus [16] = experiment: Reduction in blood glucose in Kunming mouse assessed as blood glucose level at 25 nmol/kg, ip at administered 0 mins followed by first glucose challenge at 40 mins followed by second glucose challenge at 310 mins and measured at 310 mins by glucose tolerance test (reference value: 4.9 to 6.3 mmol/L); type: functional
Mus musculus [17] = experiment: Reduction in blood glucose in Kunming mouse assessed as blood glucose level at 25 nmol/kg, ip at administered 0 mins followed by first glucose challenge at 40 mins followed by second glucose challenge at 310 mins and measured at 40 mins by glucose tolerance test (reference value: 4.9 to 6.3 mmol/L); type: functional
Mus musculus [18] = experiment: Reduction in blood glucose in Kunming mouse assessed as blood glucose level at 25 nmol/kg, ip at administered 0 mins followed by first glucose challenge at 40 mins followed by second glucose challenge at 310 mins and measured at 350 mins by glucose tolerance test (reference value: 4.9 to 6.3 mmol/L); type: functional
[19] = target: T1, DPP4 (dipeptidyl peptidase 4); experiment: Drug degradation assessed as recombinant human DPP4-mediated cleavage by measuring compound remaining after 48 hrs by RP-HPLC analysis; type: ADME; conditions: read-out: Stability
[20] = target: T1, DPP4 (dipeptidyl peptidase 4); experiment: Drug degradation assessed as recombinant human DPP4-mediated cleavage by measuring compound remaining after 96 hrs by RP-HPLC analysis; type: ADME; conditions: read-out: Stability
[21] = target: T1, DPP4 (dipeptidyl peptidase 4); experiment: Drug degradation assessed as recombinant human DPP4-mediated cleavage by measuring compound remaining after 72 hrs by RP-HPLC analysis; type: ADME; conditions: read-out: Stability
[22] = target: T1, DPP4 (dipeptidyl peptidase 4); experiment: Drug degradation assessed as recombinant human DPP4-mediated cleavage by measuring compound remaining after 24 hrs by RP-HPLC analysis; type: ADME; conditions: read-out: Stability

T1 sequence (P27487 whole entry): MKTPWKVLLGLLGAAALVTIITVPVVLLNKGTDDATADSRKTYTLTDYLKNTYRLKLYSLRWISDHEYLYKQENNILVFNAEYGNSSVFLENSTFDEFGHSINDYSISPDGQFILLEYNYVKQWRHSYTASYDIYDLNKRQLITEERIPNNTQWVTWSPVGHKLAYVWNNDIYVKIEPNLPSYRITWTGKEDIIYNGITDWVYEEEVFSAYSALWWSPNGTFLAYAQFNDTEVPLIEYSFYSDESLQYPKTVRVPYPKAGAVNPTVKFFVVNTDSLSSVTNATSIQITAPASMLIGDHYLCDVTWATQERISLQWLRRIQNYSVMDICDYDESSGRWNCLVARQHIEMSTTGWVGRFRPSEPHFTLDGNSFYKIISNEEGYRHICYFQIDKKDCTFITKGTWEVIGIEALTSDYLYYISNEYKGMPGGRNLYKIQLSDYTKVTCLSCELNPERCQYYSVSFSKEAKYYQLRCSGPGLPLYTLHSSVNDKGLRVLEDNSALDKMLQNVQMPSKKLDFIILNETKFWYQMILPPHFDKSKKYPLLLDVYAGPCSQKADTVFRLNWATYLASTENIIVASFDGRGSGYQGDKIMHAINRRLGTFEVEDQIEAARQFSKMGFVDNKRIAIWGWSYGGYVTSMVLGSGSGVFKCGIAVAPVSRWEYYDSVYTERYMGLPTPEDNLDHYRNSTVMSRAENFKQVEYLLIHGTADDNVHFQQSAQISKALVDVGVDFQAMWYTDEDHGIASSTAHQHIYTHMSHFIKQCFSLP

SMILES | half-life [1] [h] | Retention_time [5] [min] | EC50 [6] [nM] | remaining at 12 h [8] [%] | remaining at 48 h [19] [%] | remaining at 96 h [20] [%] | remaining at 72 h [21] [%] | remaining at 24 h [22] [%] | Activity (Mus musculus [9]) [mmol/L] | Activity (Mus musculus [10]) [mmol/L] | Activity (Mus musculus [11]) [mmol/L] | Activity (Mus musculus [12]) [mmol/L] | Activity (Mus musculus [13]) [mmol/L] | Activity (Mus musculus [14]) [mmol/L] | Activity (Mus musculus [15]) [mmol/L] | Activity (Mus musculus [16]) [mmol/L] | Activity (Mus musculus [17]) [mmol/L] | Activity (Mus musculus [18]) [mmol/L] | also measured
CC[C@H](C)[C@H](NC(=O)[C@H](Cc1ccccc1)NC(=O)[C@H](CCC(=O)O)NC(=O)[C@H](CCCCN)NC(=O)[C@H](C)NC(=O)[C@H](C)NC(=O)[C@H](CCC(N)=O)NC(=O)CNC(=O)[C@H](CCC(=O)O)NC(=O)[C@H](CC(C)C)NC(=O)[C@H](Cc1ccc(O)cc1)NC(=O)[C@H](CO)NC(=O)[C@H](CO)NC(=O)[C@@H](NC(=O)[C@H](CC(=O)O)NC(=O)[C@H](CO)NC(=O)[C@@H](NC(=O)[C@H](Cc1ccccc1)NC(=O)[C@@H](NC(=O)CCNC(=O)[C@H](CCC(=O)O)NC(=O)[C@H](C)NC(=O)[C@@H](N)Cc1cnc[nH]1)[C@@H](C)O)[C@@H](C)O)C(C)C)C(=O)N[C@@H](C)C(=O)N[C@@H](Cc1c[nH]c2ccccc12)C(=O)N[C@@H](CC(C)C)C(=O)N[C@H](C(=O)N[C@@H](CCCCN)C(=O)NCC(=O)N[C@@H](CCCNC(=N)N)C(N)=O)C(C)C | 2.39 | 14.566 | 0.0636 | 7.5 | – | – | – | – | – | – | – | – | – | – | – | – | – | – | remaining at 4 h [2]: 34.8%; remaining at 8 h [3]: 14.9%; remaining at 1 h [4]: 74.8%; remaining at 2 h [7]: 57.5%
CC[C@H](C)[C@H](NC(=O)[C@H](Cc1ccccc1)NC(=O)[C@H](CCC(=O)O)NC(=O)[C@H](CCCCN)NC(=O)[C@H](C)NC(=O)[C@H](C)NC(=O)[C@H](CCC(N)=O)NC(=O)CNC(=O)[C@H](CCC(=O)O)NC(=O)[C@H](CC(C)C)NC(=O)[C@H](Cc1ccc(O)cc1)NC(=O)[C@H](CO)NC(=O)[C@H](CO)NC(=O)[C@@H](NC(=O)[C@H](CC(=O)O)NC(=O)[C@H](CO)NC(=O)[C@@H](NC(=O)[C@H](Cc1ccccc1)NC(=O)[C@@H](NC(=O)CNC(=O)[C@H](CCC(=O)O)NC(=O)C1(NC(=O)[C@@H](N)Cc2cnc[nH]2)CC1)[C@@H](C)O)[C@@H](C)O)C(C)C)C(=O)N[C@@H](C)C(=O)N[C@@H](Cc1c[nH]c2ccccc12)C(=O)N[C@@H](CC(C)C)C(=O)N[C@H](C(=O)N[C@@H](CCCCN)C(=O)NCC(=O)N[C@@H](CCCNC(=N)N)C(N)=O)C(C)C [listing 1 of 2 here] | – | – | – | – | – | – | – | – | 17.2 | 13.8 | 7.1 | 6.5 | 21.2 | 12.9 | 10.8 | 5.9 | 7.5 | 19.8 | –
CC[C@H](C)[C@H](NC(=O)[C@H](Cc1ccccc1)NC(=O)[C@H](CCC(=O)O)NC(=O)[C@H](CCCCN)NC(=O)[C@H](C)NC(=O)[C@H](C)NC(=O)[C@H](CCC(N)=O)NC(=O)CNC(=O)[C@H](CCC(=O)O)NC(=O)[C@H](CC(C)C)NC(=O)[C@H](Cc1ccc(O)cc1)NC(=O)[C@H](CO)NC(=O)[C@H](CO)NC(=O)[C@@H](NC(=O)[C@H](CC(=O)O)NC(=O)[C@H](CO)NC(=O)[C@@H](NC(=O)[C@H](Cc1ccccc1)NC(=O)[C@@H](NC(=O)CNC(=O)[C@H](CCC(=O)O)NC(=O)[C@H](C)CNC(=O)[C@@H](N)Cc1cnc[nH]1)[C@@H](C)O)[C@@H](C)O)C(C)C)C(=O)N[C@@H](C)C(=O)N[C@@H](Cc1c[nH]c2ccccc12)C(=O)N[C@@H](CC(C)C)C(=O)N[C@H](C(=O)N[C@@H](CCCCN)C(=O)NCC(=O)N[C@@H](CCCNC(=N)N)C(N)=O)C(C)C | – | – | – | – | – | – | – | – | 16.6 | 10.8 | 7.8 | 6.9 | 23.4 | 13.5 | 8.1 | 5.4 | 6.1 | 16.5 | –

The next lines start with results.

half-life [1] [h] | Retention_time [5] [min] | EC50 [6] [nM] | remaining at 12 h [8] [%] | remaining at 48 h [19] [%] | remaining at 96 h [20] [%] | remaining at 72 h [21] [%] | remaining at 24 h [22] [%] | SMILES | Activity (Mus musculus [9]) [mmol/L] | Activity (Mus musculus [10]) [mmol/L] | Activity (Mus musculus [11]) [mmol/L] | Activity (Mus musculus [12]) [mmol/L] | Activity (Mus musculus [13]) [mmol/L] | Activity (Mus musculus [14]) [mmol/L] | Activity (Mus musculus [15]) [mmol/L] | Activity (Mus musculus [16]) [mmol/L] | Activity (Mus musculus [17]) [mmol/L] | Activity (Mus musculus [18]) [mmol/L] | also measured
> 96 | 13.842 | – | 100 | 100 | 100 | 100 | 100 | CC[C@H](C)[C@H](NC(=O)[C@H](Cc1ccccc1)NC(=O)[C@H](CCC(=O)O)NC(=O)[C@H](CCCCN)NC(=O)[C@H](C)NC(=O)[C@H](C)NC(=O)[C@H](CCC(N)=O)NC(=O)CNC(=O)[C@H](CCC(=O)O)NC(=O)[C@H](CC(C)C)NC(=O)[C@H](Cc1ccc(O)cc1)NC(=O)[C@H](CO)NC(=O)[C@H](CO)NC(=O)[C@@H](NC(=O)[C@H](CC(=O)O)NC(=O)[C@H](CO)NC(=O)[C@@H](NC(=O)[C@H](Cc1ccccc1)NC(=O)[C@@H](NC(=O)CNC(=O)[C@H](CCC(=O)O)NC(=O)C1(NC(=O)[C@@H](N)Cc2cnc[nH]2)CC1)[C@@H](C)O)[C@@H](C)O)C(C)C)C(=O)N[C@@H](C)C(=O)N[C@@H](Cc1c[nH]c2ccccc12)C(=O)N[C@@H](CC(C)C)C(=O)N[C@H](C(=O)N[C@@H](CCCCN)C(=O)NCC(=O)N[C@@H](CCCNC(=N)N)C(N)=O)C(C)C [listing 2 of 2 here] | – | – | – | – | – | – | – | – | – | – | EC50 ([6]; hek293): 0.0284 nM
> 96 | 13.997 | 0.0766 | 100 | 100 | 100 | 100 | 100 | CC[C@H](C)[C@H](NC(=O)[C@H](Cc1ccccc1)NC(=O)[C@H](CCC(=O)O)NC(=O)[C@H](CCCCN)NC(=O)[C@H](C)NC(=O)[C@H](C)NC(=O)[C@H](CCC(N)=O)NC(=O)CNC(=O)[C@H](CCC(=O)O)NC(=O)[C@H](CC(C)C)NC(=O)[C@H](Cc1ccc(O)cc1)NC(=O)[C@H](CO)NC(=O)[C@H](CO)NC(=O)[C@@H](NC(=O)[C@H](CC(=O)O)NC(=O)[C@H](CO)NC(=O)[C@@H](NC(=O)[C@H](Cc1ccccc1)NC(=O)[C@@H](NC(=O)CNC(=O)[C@H](CCC(=O)O)NC(=O)[C@H]1CCC[C@@H]1NC(=O)[C@@H](N)Cc1cnc[nH]1)[C@@H](C)O)[C@@H](C)O)C(C)C)C(=O)N[C@@H](C)C(=O)N[C@@H](Cc1c[nH]c2ccccc12)C(=O)N[C@@H](CC(C)C)C(=O)N[C@H](C(=O)N[C@@H](CCCCN)C(=O)NCC(=O)N[C@@H](CCCNC(=N)N)C(N)=O)C(C)C | 15.9 | 11.5 | 8.7 | 9.1 | 22.8 | 14.8 | 11.4 | 6.2 | 7 | 19.2 | –
